Laboratory results reported in PubChem BioAssay (NCI).
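Step 1: Grow cells in 96-well plates. Step 2: Expose to compound for 48 hours at 5 concentrations. Step 3: Interpolate endpoints linearly; if unreached, use highest concentration. GI50 marks 50% less growth. Definition used: TGI = concentration required for complete inhibition of growth.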

Legend:
Test in all cases: NCI anticancer screen, dose series, 48 h
[1] = test system: RPMI-8226 leukemia
[2] = test system: HCT-116 colon
[3] = test system: LOX IMVI melanoma
[4] = test system: M14 melanoma
[5] = test system: SF-295 CNS
[6] = test system: HCT-15 colon
[7] = test system: SF-539 CNS
[8] = test system: OVCAR-5 ovarian
[9] = test system: SK-MEL-28 melanoma
[10] = test system: RXF 393 renal

COc1ccc(C(=O)C(Br)C(Br)C(=O)O)cc1 (centres undefined) showed a TGI [1] of 53.2 µM, a TGI [2] of 44.9 µM and a TGI [3] of 54 µM. It also gave a TGI [4] greater than 100 µM, a TGI [5] greater than 100 µM and a TGI [6] greater than 100 µM. For the same molecule, the TGI [7] was 51.8 µM, the TGI [8] was greater than 100 µM and the TGI [9] was greater than 100 µM. It also gave a TGI [10] of 56.4 µM.
Work on COC1OC(CBr)C(OC(c2ccccc2)(c2ccccc2)c2ccccc2)C(OC(c2ccccc2)(c2ccccc2)c2ccccc2)C1OC(c1ccccc1)(c1ccccc1)c1ccccc1 (centres undefined) yielded a TGI [1] greater than 100 µM, a TGI [2] greater than 100 µM and a TGI [3] greater than 100 µM. The TGI [4] was greater than 100 µM, the TGI [5] was greater than 100 µM and the TGI [6] was greater than 100 µM. The TGI [7] was 68.7 µM, the TGI [8] was greater than 100 µM and the TGI [9] was greater than 100 µM. It also gave a TGI [10] greater than 100 µM.
Cc1ccc(NC(=O)CC/C(CC(=O)c2ccc(Cl)cc2)=N\NC(=O)C(=O)NN)cc1C gave a TGI [1] greater than 100 µM, a TGI [2] greater than 100 µM and a TGI [3] greater than 100 µM. It also gave a TGI [4] greater than 100 µM, a TGI [5] greater than 100 µM and a TGI [6] greater than 100 µM. The TGI [7] was greater than 100 µM, the TGI [8] was greater than 100 µM and the TGI [9] was greater than 100 µM. For the same molecule, the TGI [10] was greater than 100 µM.
Molecule COc1cc([C@@H]2c3cc4c(cc3[C@@H](NCc3ccc(C#N)cc3)C3COC(=O)[C@@H]32)OCO4)cc(OC)c1O (some centres undefined) has a TGI [1] of 5.07 µM, a TGI [2] of 11.8 µM and a TGI [3] of 4.36 µM. The TGI [4] was 6.55 µM, the TGI [5] was greater than 100 µM and the TGI [6] was 3.01 µM. For the same molecule, the TGI [7] was 2.36 µM, the TGI [8] was 8.71 µM and the TGI [9] was 15.2 µM. For the same molecule, the TGI [10] was 21.5 µM.
Work on CN(C1=NS(=O)(=O)N=C(N(C)c2ccccc2)O1)c1ccccc1 yielded a TGI [1] of 43.9 µM, a TGI [2] of 27.6 µM and a TGI [3] of 27.6 µM. For the same molecule, the TGI [4] was 38.9 µM, the TGI [5] was 57.7 µM and the TGI [6] was 39.2 µM. It also gave a TGI [7] of 39.3 µM, a TGI [8] of 47 µM and a TGI [9] of 43.3 µM. The TGI [10] was 20.4 µM.
N=C1C(c2nc3ccccc3s2)=C(O)CN1c1ccc(Cl)cc1Cl showed a GI50 [1] of 18.9 µM, a TGI [1] of 62.1 µM and a GI50 [2] of 4.95 µM. It also gave a TGI [2] of 25.6 µM, a GI50 [3] of 14.8 µM and a TGI [3] of 41.2 µM. The GI50 [4] was 23.7 µM, the TGI [4] was greater than 100 µM and the GI50 [5] was 12.7 µM. For the same molecule, the TGI [5] was 52.4 µM, the GI50 [6] was 3.65 µM and the TGI [6] was 22 µM. The GI50 [7] was 7.62 µM, the TGI [7] was 26.7 µM and the GI50 [8] was 34.8 µM. For the same molecule, the TGI [8] was greater than 100 µM, the GI50 [9] was 21 µM and the TGI [9] was greater than 100 µM. The GI50 [10] was 10.8 µM and the TGI [10] was 36.1 µM.
NNC(=O)CCC(=O)Nc1ccc(Cl)cc1Cl showed a TGI [1] greater than 100 µM, a TGI [2] greater than 100 µM and a TGI [3] greater than 100 µM. For the same molecule, the TGI [4] was greater than 100 µM, the TGI [5] was greater than 100 µM and the TGI [6] was greater than 100 µM. For the same molecule, the TGI [7] was greater than 100 µM, the TGI [8] was greater than 100 µM and the TGI [9] was greater than 100 µM. For the same molecule, the TGI [10] was greater than 100 µM.
Molecule COc1cc2ccc(/C(C)=N/OC(C)=O)cc2cc1OC has a TGI [1] greater than 100 µM, a TGI [2] greater than 100 µM and a TGI [3] greater than 100 µM. The TGI [4] was greater than 100 µM, the TGI [5] was greater than 100 µM and the TGI [6] was greater than 100 µM. The TGI [7] was greater than 100 µM, the TGI [8] was greater than 100 µM and the TGI [9] was greater than 100 µM. It also gave a TGI [10] greater than 100 µM.
O=S1c2ccccc2N=C(c2ccc(Cl)cc2)CC1c1cccs1 (centres undefined) showed a TGI [1] of 56.2 µM, a TGI [2] of 24.3 µM and a TGI [3] of 25.9 µM. It also gave a TGI [4] of 37.4 µM, a TGI [5] of 39.5 µM and a TGI [6] of 29.1 µM. It also gave a TGI [7] of 32.5 µM, a TGI [8] of 61.3 µM and a TGI [9] of 38.4 µM. It also gave a TGI [10] of 47.6 µM.
Work on CCC(c1ccc(OC)cc1)C(CC)c1ccc(O)c(CN2CCCC2)c1 (centres undefined) yielded a GI50 [1] of 2.24 µM, a TGI [1] of 6.28 µM and a GI50 [2] of 3.44 µM. The TGI [2] was 12.5 µM, the GI50 [3] was 2.04 µM and the TGI [3] was 4.74 µM. For the same molecule, the GI50 [4] was 2.15 µM, the TGI [4] was 5.08 µM and the GI50 [5] was 2.12 µM. It also gave a TGI [5] of 4.85 µM, a GI50 [6] of 3.09 µM and a TGI [6] of 10.7 µM. It also gave a GI50 [7] of 4.16 µM, a TGI [7] of 15.6 µM and a GI50 [8] of 12.3 µM. The TGI [8] was 27.8 µM, the GI50 [9] was 2.04 µM and the TGI [9] was 4.57 µM. The GI50 [10] was 2.81 µM and the TGI [10] was 7.55 µM.
CNC(=O)c1cncc(/C=C/c2c(C)cccc2C)c1 gave a GI50 [1] greater than 25 µM, a TGI [1] greater than 25 µM and a GI50 [2] greater than 25 µM. The TGI [2] was greater than 25 µM, the GI50 [3] was 16.2 µM and the TGI [3] was greater than 25 µM. It also gave a GI50 [4] greater than 25 µM, a TGI [4] greater than 25 µM and a GI50 [5] greater than 25 µM. For the same molecule, the TGI [5] was greater than 25 µM, the GI50 [6] was greater than 25 µM and the TGI [6] was greater than 25 µM. It also gave a GI50 [7] of 14.5 µM, a TGI [7] greater than 25 µM and a GI50 [8] greater than 25 µM. It also gave a TGI [8] greater than 25 µM, a GI50 [9] greater than 25 µM and a TGI [9] greater than 25 µM. The GI50 [10] was 13.4 µM and the TGI [10] was greater than 25 µM.
Cc1ccc2c(N/N=C\c3ccco3)cc(C)nc2n1 was tested, and the GI50 [1] was 2.48 µM, the TGI [1] was 7.06 µM and the GI50 [2] was 2.95 µM. It also gave a TGI [2] of 11 µM, a GI50 [3] of 3.76 µM and a TGI [3] of 14 µM. It also gave a GI50 [4] of 2.05 µM, a TGI [4] of 4.04 µM and a GI50 [5] of 3.31 µM. The TGI [5] was 14.3 µM, the GI50 [6] was 2.89 µM and the TGI [6] was 12 µM. For the same molecule, the GI50 [7] was 2.01 µM, the TGI [7] was 3.74 µM and the GI50 [8] was 11.8 µM. It also gave a TGI [8] of 26.3 µM, a GI50 [9] of 2.11 µM and a TGI [9] of 5.35 µM. It also gave a GI50 [10] of 4.53 µM and a TGI [10] of 17.1 µM.
O=C1/C(=C/c2ccccc2)CN(CCC(=O)N2C/C(=C\c3ccccc3)C(=O)/C(=C/c3ccccc3)C2)C/C1=C\c1ccccc1 was tested, and the GI50 [1] was 0.046 µM, the TGI [1] was 0.5 µM and the GI50 [2] was 0.346 µM. The TGI [2] was 4.17 µM, the GI50 [3] was 0.628 µM and the TGI [3] was 4.32 µM. For the same molecule, the GI50 [4] was 4.13 µM, the TGI [4] was greater than 77.9 µM and the GI50 [5] was 14.2 µM. For the same molecule, the TGI [5] was 30 µM, the GI50 [6] was 0.906 µM and the TGI [6] was 45.1 µM. For the same molecule, the GI50 [7] was 13.9 µM, the TGI [7] was 50.6 µM and the GI50 [8] was 33.1 µM. The TGI [8] was greater than 91.3 µM, the GI50 [9] was 23.4 µM and the TGI [9] was 74.5 µM. It also gave a GI50 [10] of 6.65 µM and a TGI [10] of 19.9 µM.
With CCC1CCCCN1C(=S)N/N=C(\C)c1ccccn1 (centres undefined) the GI50 [1] was 0.0423 µM, the TGI [1] was 1.89 µM and the TGI [2] was 3.49 µM. The GI50 [3] was less than 0.0246 µM, the TGI [3] was 3.86 µM and the GI50 [4] was 0.0358 µM. For the same molecule, the TGI [4] was 1.96 µM, the GI50 [5] was 0.0296 µM and the TGI [5] was 2.81 µM. The GI50 [6] was 0.0269 µM, the TGI [6] was 3.3 µM and the GI50 [7] was 0.171 µM. The TGI [7] was 2.45 µM, the GI50 [8] was 0.416 µM and the TGI [8] was 4.88 µM. For the same molecule, the GI50 [9] was 0.561 µM, the TGI [9] was 4.65 µM and the GI50 [10] was 0.488 µM. The TGI [10] was 1.91 µM.
C[C@]12CC(C#N)C(=O)C(O)=C1CC[C@@H]1C2CC[C@@]2(C)C1CC[C@@H]2O (some centres undefined) gave a TGI [1] greater than 100 µM, a TGI [2] greater than 100 µM and a TGI [3] greater than 100 µM. For the same molecule, the TGI [4] was greater than 100 µM, the TGI [5] was greater than 100 µM and the TGI [6] was greater than 100 µM. The TGI [7] was greater than 100 µM, the TGI [8] was greater than 100 µM and the TGI [9] was greater than 100 µM. It also gave a TGI [10] of 44.4 µM.
Molecule NC1=NC(c2ccccc2)CC(c2cc(Cl)cc(Br)c2O)=N1 (centres undefined) has a TGI [1] of 33.6 µM, a TGI [2] of 25.8 µM and a TGI [3] of 27.7 µM. The TGI [4] was 28.7 µM, the TGI [5] was 23.7 µM and the TGI [6] was 31.1 µM. For the same molecule, the TGI [7] was 25.4 µM, the TGI [8] was 34.4 µM and the TGI [9] was 28.9 µM. The TGI [10] was 17 µM.
